# Reference: article PMC5218480 (PLoS ONE, 2017)
# System: MV-4-11 cells
# Assay: Gene expression microarray analysis (Affymetrix PrimeView) and GSEA
# Assay type: cell-based, human
# Parameters: RFU PODN (11730768_x_at) / Fold change /veh PODN (11730768_x_at) / RFU LINC00158 (11744669_a_at) / Fold change /veh LINC00158 (11744669_a_at) / RFU DUSP10 (11751237_a_at) / Fold change /veh DUSP10 (11751237_a_at) / RFU ID3 (11757404_x_at) / Fold change /veh ID3 (11757404_x_at) / RFU PLEKHG5 (11737974_s_at) / Fold change /veh PLEKHG5 (11737974_s_at) / RFU LRRC4B (11730491_at) / Fold change /veh LRRC4B (11730491_at) / RFU GIMAP4 (11747438_a_at) / Fold change /veh GIMAP4 (11747438_a_at) / RFU KRT8 (11758183_x_at) / Fold change /veh KRT8 (11758183_x_at) / RFU CNN1 (11734310_a_at) / Fold change /veh CNN1 (11734310_a_at) / RFU VPS37D (11726825_at) / Fold change /veh VPS37D (11726825_at) / RFU C10orf10 (11716522_x_at) / Fold change /veh C10orf10 (11716522_x_at) / RFU KIR2DL2 /// KIR2DL4 /// KIR2DL5A /// KIR2DL5B /// KIR2DS1 /// KIR2DS2 /// KIR2DS3 /// KIR2DS4 /// KIR3DL3 /// KIR3DL3 /// KIR3DS1 (11738374_at) / Fold change /veh KIR2DL2 /// KIR2DL4 /// KIR2DL5A /// KIR2DL5B /// KIR2DS1 /// KIR2DS2 /// KIR2DS3 /// KIR2DS4 /// KIR3DL3 /// KIR3DL3 /// KIR3DS1 (11738374_at) / RFU C1QL1 (11718748_at) / Fold change /veh C1QL1 (11718748_at) / RFU TMPRSS4 (11747572_a_at) / Fold change /veh TMPRSS4 (11747572_a_at) / RFU HAMP (11756126_x_at) / Fold change /veh HAMP (11756126_x_at) / RFU RNFT2 (11725882_a_at) / Fold change /veh RNFT2 (11725882_a_at) / RFU NR4A2 (11747474_a_at) / Fold change /veh NR4A2 (11747474_a_at) / RFU ABCC12 (11746883_a_at) / Fold change /veh ABCC12 (11746883_a_at) / RFU TMEM136 (11760407_x_at) / Fold change /veh TMEM136 (11760407_x_at) / RFU CLDN22 /// WWC2 (11732394_at) / Fold change /veh CLDN22 /// WWC2 (11732394_at) / RFU HLA-DPB1 (11760878_x_at) / Fold change /veh HLA-DPB1 (11760878_x_at) / RFU SPINT1 (11716480_a_at) / Fold change /veh SPINT1 (11716480_a_at) / RFU GAP43 (11754022_s_at) / Fold change /veh GAP43 (11754022_s_at) / RFU A4GNT (11735810_at) / Fold change /veh A4GNT (11735810_at) / RFU PRB3 (11715151_x_at) / Fold change /veh PRB3 (11715151_x_at) / RFU TUBB4B (11761932_at) / Fold change /veh TUBB4B (11761932_at) / RFU CAPN14 (11732068_a_at) / Fold change /veh CAPN14 (11732068_a_at) / RFU TMCC2 (11721928_a_at) / Fold change /veh TMCC2 (11721928_a_at) / RFU IRGQ (11745062_a_at) / Fold change /veh IRGQ (11745062_a_at) / RFU FAM174B (11720279_a_at) / Fold change /veh FAM174B (11720279_a_at) / RFU TMPRSS4 (11748680_a_at) / Fold change /veh TMPRSS4 (11748680_a_at) / RFU FAM212B (11763350_a_at) / Fold change /veh FAM212B (11763350_a_at) / RFU PLEKHG5 (11743358_a_at) / Fold change /veh PLEKHG5 (11743358_a_at) / RFU ZSCAN30 (11745921_a_at) / Fold change /veh ZSCAN30 (11745921_a_at) / RFU CMKLR1 (11741424_a_at) / Fold change /veh CMKLR1 (11741424_a_at) / RFU LOC101060620 /// MAPK8IP1 (11723275_at) / Fold change /veh LOC101060620 /// MAPK8IP1 (11723275_at) / RFU SPTSSB (11747773_x_at) / Fold change /veh SPTSSB (11747773_x_at) / RFU PRSS12 (11739890_at) / Fold change /veh PRSS12 (11739890_at) / RFU BIN1 (11741810_x_at) / Fold change /veh BIN1 (11741810_x_at) / RFU WNT11 (11732464_a_at) / Fold change /veh WNT11 (11732464_a_at) / RFU C10orf10 (11716521_a_at) / Fold change /veh C10orf10 (11716521_a_at) / RFU C5orf56 (11738089_at) / Fold change /veh C5orf56 (11738089_at) / RFU CYB561 (11721691_x_at) / Fold change /veh CYB561 (11721691_x_at) / RFU ANKRD19P (11752326_a_at) / Fold change /veh ANKRD19P (11752326_a_at) / RFU OR2T12 /// OR2T33 /// OR2T8 (11738714_s_at) / Fold change /veh OR2T12 /// OR2T33 /// OR2T8 (11738714_s_at) / RFU VCAN (11748164_a_at) / Fold change /veh VCAN (11748164_a_at) / RFU JSRP1 (11732532_at) / Fold change /veh JSRP1 (11732532_at) / RFU KRTAP10-11 (11738290_x_at) / Fold change /veh KRTAP10-11 (11738290_x_at) / RFU MYO3A (11730013_a_at) / Fold change /veh MYO3A (11730013_a_at) / RFU EBF3 (11725865_a_at) / Fold change /veh EBF3 (11725865_a_at) / RFU CAMK2N1 (11719241_x_at) / Fold change /veh CAMK2N1 (11719241_x_at) / RFU C5orf56 (11738088_a_at) / Fold change /veh C5orf56 (11738088_a_at) / RFU OLFML3 (11715873_a_at) / Fold change /veh OLFML3 (11715873_a_at) / RFU LOC100653217 /// NTM (11731650_a_at) / Fold change /veh LOC100653217 /// NTM (11731650_a_at) / RFU MAPK11 (11762145_a_at) / Fold change /veh MAPK11 (11762145_a_at) / RFU FIZ1 (11724087_x_at) / Fold change /veh FIZ1 (11724087_x_at) / RFU OASL (11726364_x_at) / Fold change /veh OASL (11726364_x_at) / RFU SOX15 (11748057_x_at) / Fold change /veh SOX15 (11748057_x_at) / RFU CD79A (11719716_a_at) / Fold change /veh CD79A (11719716_a_at) / RFU HIST1H1D (11736915_at) / Fold change /veh HIST1H1D (11736915_at) / RFU CASKIN2 (11723855_a_at) / Fold change /veh CASKIN2 (11723855_a_at) / RFU LOC730098 (11760151_x_at) / Fold change /veh LOC730098 (11760151_x_at) / RFU OR4N2 (11742367_at) / Fold change /veh OR4N2 (11742367_at) / RFU PRRT2 (11749266_a_at) / Fold change /veh PRRT2 (11749266_a_at) / RFU SNX32 (11753110_a_at) / Fold change /veh SNX32 (11753110_a_at) / RFU CDHR5 (11726645_a_at) / Fold change /veh CDHR5 (11726645_a_at) / RFU RCAN1 (11760418_a_at) / Fold change /veh RCAN1 (11760418_a_at) / RFU FAM167A (11723789_a_at) / Fold change /veh FAM167A (11723789_a_at) / RFU FAM26E (11764081_at) / Fold change /veh FAM26E (11764081_at) / RFU ISYNA1 (11749810_s_at) / Fold change /veh ISYNA1 (11749810_s_at) / RFU ACY1 (11761880_at) / Fold change /veh ACY1 (11761880_at) / RFU 11764098_at / Fold change /veh 11764098_at / RFU SAMD14 (11745864_x_at) / Fold change /veh SAMD14 (11745864_x_at) / RFU NPB (11741838_a_at) / Fold change /veh NPB (11741838_a_at) / RFU TMPRSS6 (11731388_a_at) / Fold change /veh TMPRSS6 (11731388_a_at) / RFU KRTAP10-2 (11738614_at) / Fold change /veh KRTAP10-2 (11738614_at) / RFU ARHGAP8 /// PRR5-ARHGAP8 (11727945_x_at) / Fold change /veh ARHGAP8 /// PRR5-ARHGAP8 (11727945_x_at) / RFU KRTAP5-7 /// NADSYN1 (11734609_at) / Fold change /veh KRTAP5-7 /// NADSYN1 (11734609_at) / RFU RASL12 (11751679_a_at) / Fold change /veh RASL12 (11751679_a_at) / RFU CDKN2B (11736163_a_at) / Fold change /veh CDKN2B (11736163_a_at) / RFU PRF1 (11729649_at) / Fold change /veh PRF1 (11729649_at) / RFU, ZNF638 /// ZNF638-IT1 / Fold change vs veh, ZNF638 /// ZNF638-IT1 / RFU, PANK3 / Fold change vs veh, PANK3 / RFU, SH3YL1 / Fold change vs veh, SH3YL1 / RFU, ZEB2 / Fold change vs veh, ZEB2 / RFU, NRIP1 / Fold change vs veh, NRIP1 / RFU, PTTG1IP / Fold change vs veh, PTTG1IP / RFU, CAPN2 / Fold change vs veh, CAPN2 / RFU, MED14 / Fold change vs veh, MED14 / RFU, SNORA58 / Fold change vs veh, SNORA58 / RFU, C1orf63 / Fold change vs veh, C1orf63 / RFU, LRRFIP1 / Fold change vs veh, LRRFIP1 / RFU, NDUFAF7 / Fold change vs veh, NDUFAF7 / RFU, SLC12A2 / Fold change vs veh, SLC12A2 / RFU, IBTK / Fold change vs veh, IBTK / RFU, ESF1 / Fold change vs veh, ESF1 / Fold change vs veh, TMEM50B / RFU, TAOK1 / Fold change vs veh, TAOK1 / RFU, ACBD3 / Fold change vs veh, ACBD3 / RFU, TMA16 / Fold change vs veh, TMA16 / RFU, RWDD3 / Fold change vs veh, RWDD3 / RFU, BCAT1 / Fold change vs veh, BCAT1 / RFU, EDEM3 / Fold change vs veh, EDEM3 / RFU, TMEM33 / Fold change vs veh, TMEM33 / RFU, WDR75 / Fold change vs veh, WDR75 / RFU, AHCTF1 / Fold change vs veh, AHCTF1 / RFU, TFRC / Fold change vs veh, TFRC / RFU, ZDHHC17 / Fold change vs veh, ZDHHC17 / RFU, NOM1 / Fold change vs veh, NOM1 / RFU, ARL8B / Fold change vs veh, ARL8B / RFU, ZBTB11 / Fold change vs veh, ZBTB11 / RFU, TAMM41 / Fold change vs veh, TAMM41 / RFU, KIAA1704 /// LOC100996395 / Fold change vs veh, KIAA1704 /// LOC100996395 / RFU, ING1 / Fold change vs veh, ING1 / RFU, TRMT61B / Fold change vs veh, TRMT61B / RFU, FUBP3 / Fold change vs veh, FUBP3 / RFU, TP53 / Fold change vs veh, TP53 / RFU, TNKS2 / Fold change vs veh, TNKS2 / RFU, ZFP14 / Fold change vs veh, ZFP14 / RFU, ACTR2 / Fold change vs veh, ACTR2 / RFU, PPP3R1 / Fold change vs veh, PPP3R1 / RFU, PIK3R1 / Fold change vs veh, PIK3R1 / RFU, HNRNPA1 / Fold change vs veh, HNRNPA1 / RFU, RNF170 / Fold change vs veh, RNF170 / RFU, ZNF28 / Fold change vs veh, ZNF28 / RFU, RNGTT / Fold change vs veh, RNGTT / RFU, OGT / Fold change vs veh, OGT / RFU, BRD1 / Fold change vs veh, BRD1 / RFU, MARS / Fold change vs veh, MARS / RFU, ZNF655 / Fold change vs veh, ZNF655 / RFU, FAHD1 / Fold change vs veh, FAHD1 / RFU, BDP1 / Fold change vs veh, BDP1 / RFU, LRRCC1 / Fold change vs veh, LRRCC1 / RFU, ARID1A / Fold change vs veh, ARID1A / RFU, ZNF146 / Fold change vs veh, ZNF146 / RFU, ZNF330 / Fold change vs veh, ZNF330 / RFU, GPN3 / Fold change vs veh, GPN3 / RFU, C9orf123 / Fold change vs veh, C9orf123 / RFU, N4BP2L2 / Fold change vs veh, N4BP2L2 / RFU, ARFIP1 / Fold change vs veh, ARFIP1 / RFU, FAM179B / Fold change vs veh, FAM179B / RFU, BCL10 / Fold change vs veh, BCL10 / RFU, UHRF1BP1L / Fold change vs veh, UHRF1BP1L / RFU, BET1 / Fold change vs veh, BET1 / RFU, CNOT2 / Fold change vs veh, CNOT2 / RFU, ZNF268 / Fold change vs veh, ZNF268 / Fold change vs veh, ZNF507 / RFU, DGCR2 / Fold change vs veh, DGCR2 / RFU, WDSUB1 / Fold change vs veh, WDSUB1 / Fold change vs veh, HSP90B1 /// MIR3652 / RFU, ADSS / Fold change vs veh, ADSS / RFU, GK / Fold change vs veh, GK / RFU, ZNF148 / Fold change vs veh, ZNF148 / RFU, TAF9 / Fold change vs veh, TAF9 / RFU, SLC1A5 / Fold change vs veh, SLC1A5 / RFU, SLMO2 / Fold change vs veh, SLMO2 / RFU, ABCC4 / Fold change vs veh, ABCC4 / RFU, LOC101060439 /// RAP1B / Fold change vs veh, LOC101060439 /// RAP1B / RFU, RFX7 / Fold change vs veh, RFX7 / RFU, GTPBP10 / Fold change vs veh, GTPBP10 / RFU, CNEP1R1 / Fold change vs veh, CNEP1R1 / RFU, BIVM-ERCC5 /// ERCC5 / Fold change vs veh, BIVM-ERCC5 /// ERCC5 / RFU, ILF3 / Fold change vs veh, ILF3 / RFU 11762660_at / Fold change /veh 11762660_at / RFU VCAN (11757783_s_at) / Fold change /veh VCAN (11757783_s_at) / RFU DDX43 (11728927_at) / Fold change /veh DDX43 (11728927_at) / RFU KRT8 (11758188_x_at) / Fold change /veh KRT8 (11758188_x_at) / RFU NKD1 (11759106_at) / Fold change /veh NKD1 (11759106_at) / RFU SRD5A1 (11742802_a_at) / Fold change /veh SRD5A1 (11742802_a_at) / RFU TPSAB1 /// TPSB2 (11721975_s_at) / Fold change /veh TPSAB1 /// TPSB2 (11721975_s_at) / RFU GSTM3 (11746129_a_at) / Fold change /veh GSTM3 (11746129_a_at) / RFU IL23R (11737362_x_at) / Fold change /veh IL23R (11737362_x_at) / RFU TMEM51 (11727254_a_at) / Fold change /veh TMEM51 (11727254_a_at) / RFU PIWIL2 (11732686_x_at) / Fold change /veh PIWIL2 (11732686_x_at) / RFU ORM1 (11744905_x_at) / Fold change /veh ORM1 (11744905_x_at) / RFU CCDC152 (11743942_at) / Fold change /veh CCDC152 (11743942_at) / RFU ECM1 (11717891_a_at) / Fold change /veh ECM1 (11717891_a_at) / RFU IL23R (11748794_a_at) / Fold change /veh IL23R (11748794_a_at) / RFU TNFAIP8L3 (11732012_x_at) / Fold change /veh TNFAIP8L3 (11732012_x_at) / RFU MBOAT4 (11741988_at) / Fold change /veh MBOAT4 (11741988_at) / RFU 11764193_at / Fold change /veh 11764193_at / RFU TMEM53 (11763286_at) / Fold change /veh TMEM53 (11763286_at) / RFU MAGEB2 (11727129_at) / Fold change /veh MAGEB2 (11727129_at) / RFU TMEM200A (11744735_a_at) / Fold change /veh TMEM200A (11744735_a_at) / RFU CCDC152 (11751479_a_at) / Fold change /veh CCDC152 (11751479_a_at) / RFU FAM211A (11726209_a_at) / Fold change /veh FAM211A (11726209_a_at) / RFU RGS16 (11746705_a_at) / Fold change /veh RGS16 (11746705_a_at) / RFU VCAN (11755009_s_at) / Fold change /veh VCAN (11755009_s_at) / RFU RHOB (11743442_s_at) / Fold change /veh RHOB (11743442_s_at) / RFU RGS16 (11720943_a_at) / Fold change /veh RGS16 (11720943_a_at) / RFU RGS16 (11720944_at) / Fold change /veh RGS16 (11720944_at) / RFU, VPS4B / Fold change vs veh, VPS4B / RFU, CREB1 / Fold change vs veh, CREB1 / RFU, DNAJC13 / Fold change vs veh, DNAJC13 / RFU, GNAQ / Fold change vs veh, GNAQ / RFU, CDK5R1 / Fold change vs veh, CDK5R1 / RFU, ZRANB3 / Fold change vs veh, ZRANB3 / RFU, CUL4A / Fold change vs veh, CUL4A / RFU, CCNY / Fold change vs veh, CCNY / RFU, UFL1 / Fold change vs veh, UFL1 / RFU, COG3 / Fold change vs veh, COG3 / RFU, DIAPH2 / Fold change vs veh, DIAPH2 / RFU, SKA2 / Fold change vs veh, SKA2 / RFU, AFF3 / Fold change vs veh, AFF3 / RFU, LMF1 / Fold change vs veh, LMF1 / RFU, IPO11 / Fold change vs veh, IPO11 / RFU, DFFB / Fold change vs veh, DFFB / RFU, FOXP1 / Fold change vs veh, FOXP1 / RFU, CARD8 / Fold change vs veh, CARD8 / RFU, STRN3 / Fold change vs veh, STRN3 / RFU, ADK / Fold change vs veh, ADK / RFU, RASSF2 / Fold change vs veh, RASSF2 / RFU, WIPF1 / Fold change vs veh, WIPF1 / RFU, LARP1B / Fold change vs veh, LARP1B / RFU, RASA1 / Fold change vs veh, RASA1 / RFU, RB1 / Fold change vs veh, RB1 / RFU, PPFIA1 / Fold change vs veh, PPFIA1 / RFU, MAT2A / Fold change vs veh, MAT2A / RFU, CCT5 / Fold change vs veh, CCT5 / RFU, WDR92 / Fold change vs veh, WDR92 / RFU, CUX1 / Fold change vs veh, CUX1 / RFU, TTC7A / Fold change vs veh, TTC7A / RFU, TMEM135 / Fold change vs veh, TMEM135 / RFU, DEPTOR / Fold change vs veh, DEPTOR / RFU, CPM / Fold change vs veh, CPM / RFU, DNAJB6 / Fold change vs veh, DNAJB6 / RFU, CACNA2D3 / Fold change vs veh, CACNA2D3 / RFU, DTX4 / Fold change vs veh, DTX4 / RFU, TFCP2 / Fold change vs veh, TFCP2 / RFU, GMCL1 /// GMCL1P1 / Fold change vs veh, GMCL1 /// GMCL1P1 / RFU, AEBP2 / Fold change vs veh, AEBP2 / RFU, SNHG1 /// SNORD22 /// SNORD25 /// SNORD26 /// SNORD27 /// SNORD28 /// SNORD29 /// SNORD31 / Fold change vs veh, SNHG1 /// SNORD22 /// SNORD25 /// SNORD26 /// SNORD27 /// SNORD28 /// SNORD29 /// SNORD31 / Fold change (Aza/veh), C12orf56 (ProbeSet 11735607_a_at) / Fold change (ACY-1035/veh), C12orf56 (ProbeSet 11735607_a_at) / Fold change (Aza/veh), FGFR1OP (ProbeSet 11751329_s_at) / Fold change (ACY-1035/veh), FGFR1OP (ProbeSet 11751329_s_at) / Fold change (Aza/veh), VPS36 (ProbeSet 11739960_a_at) / Fold change (ACY-1035/veh), VPS36 (ProbeSet 11739960_a_at) / RFU SYPL1 (11715823_x_at) / Fold change /veh SYPL1 (11715823_x_at) / RFU IGFBP7 (11715501_s_at) / Fold change /veh IGFBP7 (11715501_s_at) / RFU REEP3 (11722064_at) / Fold change /veh REEP3 (11722064_at) / RFU IGLL1 (11728026_x_at) / Fold change /veh IGLL1 (11728026_x_at): dose or concentration left out as unconfirmed
# Settings: ProbeSet 11716331_a_at; LIST D
structure (smiles),measurement,value
Nc1ccc(-c2cccs2)cc1NC(=O)c1ccc2c(c1)cc(C1CC1)n2CCN1CCOCC1 [ACY-1035],"Fold change vs veh, DNAJB6",0.86
